This note sets out measurements from ChEMBL document CHEMBL1144549, “Preparation of secolycorines against acetylcholinesterase” (Bioorg Med Chem, 2007).

SMILES strings stand for the structures.

In the assay the target is Acetylcholinesterase (Electrophorus electricus, UniProt O42275). Briefly: Inhibition of eel AChE.
Chain of Acetylcholinesterase (O42275 whole entry): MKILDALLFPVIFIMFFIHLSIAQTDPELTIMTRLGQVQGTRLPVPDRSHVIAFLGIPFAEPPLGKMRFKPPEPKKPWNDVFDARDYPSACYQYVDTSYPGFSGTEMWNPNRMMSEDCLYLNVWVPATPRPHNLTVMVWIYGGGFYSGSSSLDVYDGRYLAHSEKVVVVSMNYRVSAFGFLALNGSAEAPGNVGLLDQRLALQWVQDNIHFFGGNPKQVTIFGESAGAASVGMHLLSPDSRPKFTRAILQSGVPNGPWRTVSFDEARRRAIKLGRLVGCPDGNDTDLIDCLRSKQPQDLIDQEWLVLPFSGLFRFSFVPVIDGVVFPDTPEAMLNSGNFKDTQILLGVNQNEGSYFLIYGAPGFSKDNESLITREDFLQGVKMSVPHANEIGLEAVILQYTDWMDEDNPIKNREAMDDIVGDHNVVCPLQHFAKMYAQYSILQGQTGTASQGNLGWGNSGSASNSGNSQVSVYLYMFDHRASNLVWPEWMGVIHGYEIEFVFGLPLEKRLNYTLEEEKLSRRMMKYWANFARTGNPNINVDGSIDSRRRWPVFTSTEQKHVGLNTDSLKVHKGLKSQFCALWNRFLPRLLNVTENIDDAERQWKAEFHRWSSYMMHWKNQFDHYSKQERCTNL

For orientation: IC50 means the concentration at which inhibition is half-maximal. As for `C=Cc1cccc2c1N(CCCCCC)Cc1cc3c(cc1-2)OCO3`, the IC50 was less than 5 µM.

As to `C=Cc1cccc2c1N(CCCC)Cc1cc3c(cc1-2)OCO3`, inhibition was half-maximal at 2.66 µM (IC50). The compound `C=Cc1cccc2c1N(CCCCC)Cc1cc3c(cc1-2)OCO3` had a half-maximal inhibitory concentration (IC50) of less than 5 µM. On to `CCc1cccc2c1N(C)Cc1cc3c(cc1-2)OCO3`, for which the IC50 is 3 µM. Compound `C=Cc1cccc2c1N(C)Cc1cc3c(cc1-2)OCO3` registered a concentration for half-maximal inhibition (IC50) of 2.89 µM.

In turn, `C=Cc1cccc2c1N(CCC)Cc1cc3c(cc1-2)OCO3` came in with an IC50 of 10.6 µM. With `CCCN1Cc2cc3c(cc2-c2cccc(CC)c21)OCO3`, the IC50 was determined as 9.98 µM. `CCCCN1Cc2cc3c(cc2-c2cccc(CC)c21)OCO3` gave an IC50 of 5.44 µM. With `CCCCCN1Cc2cc3c(cc2-c2cccc(CC)c21)OCO3` the figure was less than 5 µM. Take `CCc1cccc2c1N(CC)Cc1cc3c(cc1-2)OCO3`: the IC50 stood at 8.82 µM. With `CCCCCCN1Cc2cc3c(cc2-c2cccc(CC)c21)OCO3` the figure was less than 5 µM; with `C=Cc1cccc2c1N(CC)Cc1cc3c(cc1-2)OCO3`, 8.35 µM.
